Measured values reported in ChEMBL document CHEMBL1128063, “Discovery of selective dopamine D3 ligands: I. Dimeric 2-[4-(3-aminopropoxy)phenyl]benzimidazole antagonists” (Bioorg Med Chem Lett, 1995).
pKi: −log10 of the molar value.

Legend:
[1] = target: D(2) dopamine receptor (Homo sapiens, UniProt P14416); assay: Binding affinity towards human cloned Dopamine D2 receptor in CHO cells by [3H]spiperone displacement.; type: cell-based
[2] = target: D(3) dopamine receptor (Homo sapiens, UniProt P35462); assay: Binding affinity towards human cloned Dopamine D3 receptor in CHO cells by [3H]spiperone displacement.; type: cell-based
[3] = tested on: Mus musculus; assay: Compound was tested for the locomotory activity in mice after ip administration; type: functional
[4] = tested on: Rattus norvegicus; assay: Compound was tested for the locomotory activity in rats after oral administration; no effect; type: functional

Chain of D(2) dopamine receptor (P14416 whole entry): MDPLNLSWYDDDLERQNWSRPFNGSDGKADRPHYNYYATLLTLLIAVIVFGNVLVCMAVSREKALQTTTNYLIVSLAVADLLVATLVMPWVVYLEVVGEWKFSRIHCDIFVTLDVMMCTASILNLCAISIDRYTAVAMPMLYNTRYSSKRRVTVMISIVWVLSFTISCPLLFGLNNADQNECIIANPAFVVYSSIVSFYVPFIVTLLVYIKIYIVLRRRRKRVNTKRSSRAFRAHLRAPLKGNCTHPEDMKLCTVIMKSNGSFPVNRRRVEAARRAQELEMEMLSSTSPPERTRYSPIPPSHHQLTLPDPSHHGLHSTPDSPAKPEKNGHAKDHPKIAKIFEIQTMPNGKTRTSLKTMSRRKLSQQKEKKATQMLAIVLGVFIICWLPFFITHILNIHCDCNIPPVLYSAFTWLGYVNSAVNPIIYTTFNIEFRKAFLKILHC
Chain of D(3) dopamine receptor (P35462 whole entry): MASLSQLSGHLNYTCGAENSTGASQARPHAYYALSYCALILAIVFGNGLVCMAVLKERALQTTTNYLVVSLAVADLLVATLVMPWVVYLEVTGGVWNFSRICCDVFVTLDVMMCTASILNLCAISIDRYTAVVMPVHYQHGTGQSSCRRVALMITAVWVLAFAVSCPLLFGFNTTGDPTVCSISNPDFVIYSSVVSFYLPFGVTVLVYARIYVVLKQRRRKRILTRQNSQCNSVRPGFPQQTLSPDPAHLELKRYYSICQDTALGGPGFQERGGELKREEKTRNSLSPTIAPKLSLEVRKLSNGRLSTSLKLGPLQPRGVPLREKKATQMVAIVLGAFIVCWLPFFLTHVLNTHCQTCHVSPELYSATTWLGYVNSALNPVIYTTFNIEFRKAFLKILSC

Structure (SMILES)	pKi [1]	pKi [2]	ED50 [3] [mg/kg]	ED50 [4] [mg/kg]
CCN(CC)CCCOc1ccc(-c2nc3ccccc3n2C/C=C/Cn2c(-c3ccccc3)nc3ccccc32)cc1	5.19	6.88	–	–
CCCN(CCC)CCCOc1ccc(-c2nc3ccccc3n2C/C=C/Cn2c(-c3ccc(OCCCN(CCC)CCC)cc3)nc3ccccc32)cc1	6.46	8.30	–	–
CCN(CC)CCCOc1ccc(-c2nc3ccccc3n2CC=CCn2c(-c3ccc(OCCCN(CC)CC)cc3)nc3ccccc32)cc1	5.82	7.06	–	–
CCN(CC)CCCOc1ccc(-c2nc3ccccc3n2C/C=C/Cn2c(C)nc3ccccc32)cc1	< 5.48	5.92	–	–
CCN(CC)CCCOc1ccc(-c2nc3ccccc3n2CCCCn2c(-c3ccc(OCCCN(CC)CC)cc3)nc3ccccc32)cc1	5.83	7.55	–	–
CCN(CC)CCCOc1ccc(-c2nc3ccccc3n2Cc2ccc(Cn3c(-c4ccc(OCCCN(CC)CC)cc4)nc4ccccc43)cc2)cc1	5.46	6.74	–	–
CCN(CC)CCCOc1ccc(-c2nc3ccccc3n2C/C=C/Cn2c(-c3ccc(OCCCN(CC)CC)cc3)nc3ccccc32)cc1	5.63	7.46	–	–
CCCCN(CCCC)CCCOc1ccc(-c2nc3ccccc3n2C/C=C/Cn2c(-c3ccc(OCCCN(CCCC)CCCC)cc3)nc3ccccc32)cc1	6.33	–	–	–
CCN(CC)CCCOc1ccc(-c2nc3ccccc3n2C/C=C/Cn2c(-c3ccc(OC)cc3)nc3ccccc32)cc1	5.85	–	–	–
CCN(CC)CCCOc1ccc(-c2nc3ccccc3n2CCCCCCn2c(-c3ccc(OCCCN(CC)CC)cc3)nc3ccccc32)cc1	5.76	6.88	–	–

Continued, in another order:

pKi [1]	pKi [2]	Structure (SMILES)	ED50 [3] [mg/kg]	ED50 [4] [mg/kg]
< 5.48	< 5.69	C(=C\Cn1c(-c2ccc(OCCCN3CCOCC3)cc2)nc2ccccc21)/Cn1c(-c2ccc(OCCCN3CCOCC3)cc2)nc2ccccc21	–	–
7.25	8.05	C(=C\Cn1c(-c2ccc(OCCCN3CCCC3)cc2)nc2ccccc21)/Cn1c(-c2ccc(OCCCN3CCCC3)cc2)nc2ccccc21	–	–
6.29	8.00	C(=C\Cn1c(-c2ccc(OCCCN3CCCCC3)cc2)nc2ccccc21)/Cn1c(-c2ccc(OCCCN3CCCCC3)cc2)nc2ccccc21	7.1	> 30
5.40	6.56	C(=C\Cn1c(-c2ccc(OCCCN3CCN(c4ccccc4)CC3)cc2)nc2ccccc21)/Cn1c(-c2ccc(OCCCN3CCN(c4ccccc4)CC3)cc2)nc2ccccc21	–	–
6.10	7.72	CCN(CC)CCCOc1ccc(-c2nc3ccccc3n2C/C=C/Cn2c(-c3ccc(OCCCN4CCN(c5ccccc5)CC4)cc3)nc3ccccc32)cc1	–	–
5.30	6.84	CN(C)CCCOc1ccc(-c2nc3ccccc3n2C/C=C/Cn2c(-c3ccc(OCCCN(C)C)cc3)nc3ccccc32)cc1	–	–
5.99	7.41	CCN(CC)CCCOc1ccc(-c2nc3ccccc3n2C/C=C/Cn2c(-c3ccc(OCCCC4CCCCC4)cc3)nc3ccccc32)cc1	–	–
